# Columns and labels:
# [1] = test system: A1/A2 oligonucleotide (SarA binding site of the agr locus); test: EMSA of PNA binding to radiolabeled A1/A2 oligonucleotide; design: species or system Staphylococcus aureus
# Description: The present invention also is directed to a method of identifying inhibitors of SarA function involved in the expression of staphylococcal virulence genes comprising: a) contacting a candidate inhibitor with at least one SarA binding site of the agr locus in solution to allow the binding reaction to equilibrate for a sufficient period of time; and b) assessing the binding of said candidate inhibitor to said SarA binding site of the agr locus. (See FIG. 15 for an example of the results of this method.) The method further comprises the addition of SarA to the solution of step a) simultaneously with the inhibitor and the SarA binding site, and then an assessment of the binding affinity of the candidate inhibitor relative to the binding affinity of the SarA to the SarA binding site of the agr locus. Alternatively, the addition of SarA to the solution of step a) is sequentially with the inhibitor and the SarA binding site, and then the assessment of the binding affinity of said candidate inhibitor relative to the binding affinity of said SarA to the SarA binding site of the agr locus. (See FIG. 16 for an example of the results of this method showing the results with and without the addition of SarA.)
# A prototype PNA inhibitor of SarA-agr binding is constructed and tested. […] The complexes were resolved by native gel electrophoresis and detected by phosphorimaging. […]
# [2] = test system: SarA-DNA complex (SarA and ds A1/A2 DNA); conditions: for effect of PNA added to the complexed SarA and radiolabeled ds A1/A2 DNA: PNA added to a mixture of SarA and ds A1/A2 DNA
# Description: The first tests of potential inhibitors are made using EMSA. Briefly, ^32P-labeled DNA fragments that correspond to the PNA or HP molecules are used as the targets. […] The concentration of SarA required to bind 50% of the DNA fragment is determined empirically. To determine the degree of inhibition, a mixture of SarA and ^32P-labeled DNA that gives 50% free DNA and 50% bound DNA (called 100% in this assay) is titrated with the PNA molecule. The concentration of PNA that reduces the SarA-DNA complex by 50% is the IC50 value. Using this simple, but effective testing procedure, the PNA or HP design is varied with regard to the sequence targeted and the length of PNA or HP molecules.
# The samples were analyzed by standard EMSA and phosphorimaging.
Substance,"fraction of PNA active in the binding assay ([1]; 20 nM 32P-labeled A1/A2, FIG. 15)","binding / affinity of PNA for the A1/A2 oligonucleotide ([1]; 20 nM 32P-labeled A1/A2, varying PNA concentrations, FIG. 15)",effect of PNA added to the complexed SarA and radiolabeled ds A1/A2 DNA [2],"competition with SarA for binding to A1/A2 DNA ([2]; 10 nM dsDNA incubated with PNA (0.750 pM, 7.5, 75, 750 nM) overnight, then 10 nM SarA added, FIG. 16)"
"gly-TTTCTTAACTA-lys (N-terminal glycine and C-terminal lysine attached, backbone not given here, further chemistry not given here; listed as Staphylococcus aureus) [PNA-1]","nearly all, if not all",very high,did not change this complex,
gly-TCCAATTTTTCTTAACTA-lys [18-mer],,,the complex changed from the SarA-DNA complex to the PNA-DNA complex,able to outcompete SarA for binding to the DNA

# From patent US6699662B1, “Inhibitors of staphylococcus SarA protein function involved in the expression of staphylococcal virulence factors and the use thereof in treating staphylococcal infections” (priority 1999, dated 2004)
